From US5177085A, “Dihydro-isoquinoline derivatives, processes for their production, pharmaceutical compositions containing them, and their use in treating asthma” (Sandoz Ltd., priority 1990, dated 1993)

Tests used:
[1] = test system: PAF-induced airways hyperreactivity in guinea-pigs; experiment: Suppression of airways hyperreactivity in PAF-treated animals (Example B); type: in vivo; conditions: Cavia porcellus, iv; headed Example B (PAF-treated guinea-pigs); i.v.; pure or substantially pure [3S] enantiomer for Example 1; read-out: ID50 (dose required to increase relaxation by 50%)
Description: Guinea pigs (Dunkin-Hartley, male, 400-600g) are anesthetized with phenobarbital (100-mg/kg i.p.) and pentobarbital (30 mg/kg i.p.) and paralyzed with gallamine (10 mg/kg i.m.). Animals are ventilated via a tracheal cannula (10 ml/kg, 1 Hz) with a mixture of air and oxygen (1:1 v/v). Blood pressure and heart rate are recorded at the carotid artery. Ventilation is monitored by a Fleisch flow transducer in line with the inspiratory circuit. When making measurements of flow, coincident pressure changes in the thorax are monitored directly via an intrathoracic trochar, permitting display of differential pressure relative to the trachea. From this information in relation to flow and differential pressure, resistance [R1 ] and compliance [Ddyn ] are calculated using a digital respiratory analyzer for each respiratory cycle.
Guinea-pigs are anesthetized and prepared for recording of lung function as described under Example A.2. above. […] Following infusion of PAF (platelet activating factor) over 1 hr.

[2] = test system: human bronchus ring preparations; experiment: Relaxation of human bronchus in vitro (Example A.1.b); type: cell-based; conditions: human bronchus rings; pure or substantially pure [3S] enantiomer for Example 1
Description: (§1) Guinea-pigs (Dunkin-Hartley, 350-500gm) are killed with Pentothal (100mg/kg i.p.). The trachea is dissected and a section 2-3cm in length excised. The trachea is transected in the transverse plane at alternate cartilage plates so as to give rings of tissue 3-5mm in depth. The proximal and distal rings are discarded. Individual rings are mounted vertically on stainless steel supports, one of which is fixed at the base of an organ bathm the other being attached to an isometric transducer. The rings are bathed in Krebs solution composition mM: NaHCo3 25, NaCl 113, KCl 4.7, MgSO4.7H2 O 1.2, KH2 PO4 1.2, CaCl2 2.5, Glucose 11.7) at 37° C. and gassed with O2 /CO2 (95:5,v/v). Rings prepared in this manner, preloaded with 1 g, generate spontaneous tone and, after a period of equilibration (45-60 min.), relax consistently on addition of spasmolytic drugs. To ascertain spasmolytic activity, test substances are dissolved in physiological saline and added in increasign quantities to the organ bath at 5 min. intervals to provide a cumulative concentration-effect curve.
The test is performed analogously to 1. a above but employing rings of human bronchus dissected from lung that has been resected for carcinoma. Dissected material is used immediately or first immersed in total calf serum containing DMSO ([…]), slowly frozen to -70° C. and stored in liquid N2 at -190° C. […]

[3] = test system: guinea-pig tracheal ring preparations; experiment: Relaxation of guinea-pig tracheal smooth muscle in vitro (Example A.1.a); type: cell-based, Guinea-pig (Dunkin-Hartley); conditions: Cavia porcellus; guinea-pig tracheal rings, spontaneous tone, 37° C., cumulative; pure or substantially pure [3S] enantiomer for Example 1; read-out: IC50 (concentration required to increase relaxation by 50%)
Description: as §1

Row | SMILES | ED50 [1] [mg/kg] | IC50 [2] [µM] | IC50 [3] [µM]
1 | Cn1c(=O)c2[nH]cnc2n(C)c1=O [theophyline] | 3 |  | 
2 | COc1cc(OC)cc(C2=N[C@H](CO)Cc3cc(OC)c(OC)cc32)c1 [Example 1, [3S] 3,4-dihydro-6,7-dimethoxy-1-(3,5-dimethoxyphenyl)-3-hydroxymethyl-isoquinoline] | ~0.05 | 1.9 | 0.18
3 | Cn1c(=O)c2[nH]cnc2n(C)c1=O [aminophylline] |  | 158 | 130
